Measurements from patent US9889147B2 (CELLACT PHARMA GMBH, priority 2010, dated 2018).

Tests used:
CES1 = target: T1, CES1 (Homo sapiens, UniProt P23141); assay: Conversion of CAP7.1 to etoposide by CES1 (HPLC); assay type: in vitro ADME; details: 5 μM CAP7.1, sodium phosphate pH 7.4, 37° C.
T1 sequence (P23141 18-567): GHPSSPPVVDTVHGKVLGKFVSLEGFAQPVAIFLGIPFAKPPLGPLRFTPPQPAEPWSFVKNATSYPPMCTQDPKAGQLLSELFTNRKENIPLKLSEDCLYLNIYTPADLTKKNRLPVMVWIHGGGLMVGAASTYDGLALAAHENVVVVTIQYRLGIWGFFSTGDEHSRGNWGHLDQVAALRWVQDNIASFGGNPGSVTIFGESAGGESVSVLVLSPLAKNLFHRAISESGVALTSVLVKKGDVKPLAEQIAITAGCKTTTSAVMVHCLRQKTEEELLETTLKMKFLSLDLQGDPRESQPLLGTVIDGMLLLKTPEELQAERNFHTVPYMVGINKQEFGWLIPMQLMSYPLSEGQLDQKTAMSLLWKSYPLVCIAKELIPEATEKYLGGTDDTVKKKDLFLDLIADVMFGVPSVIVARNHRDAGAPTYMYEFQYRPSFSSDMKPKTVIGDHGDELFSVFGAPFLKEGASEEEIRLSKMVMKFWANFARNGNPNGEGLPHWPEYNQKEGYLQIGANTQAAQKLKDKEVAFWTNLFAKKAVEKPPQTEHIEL
Experimental: (§1) 5 μM CAP7.1 was pre-incubated for 3 min in 999 μl 0.1 mol/l) sodium phosphate (NaH2PO4, Roth, Karlsruhe, Germany) pH 7.4 at 37° C. After that, CES1, CES2 and CES3, respectively, were added. Controls were incubated with 10% foetal calf serum (FCS, positive control) or in buffer (negative control). At different time points, aliquots were subjected to HPLC in order to analyse the formed products.

CES2 = target: T2, CES2 (Homo sapiens, UniProt O00748); assay: Conversion of CAP7.1 to etoposide by CES2 (HPLC); assay type: in vitro ADME; details: 5 μM CAP7.1, sodium phosphate pH 7.4, 37° C.
T2 sequence (O00748 27-559): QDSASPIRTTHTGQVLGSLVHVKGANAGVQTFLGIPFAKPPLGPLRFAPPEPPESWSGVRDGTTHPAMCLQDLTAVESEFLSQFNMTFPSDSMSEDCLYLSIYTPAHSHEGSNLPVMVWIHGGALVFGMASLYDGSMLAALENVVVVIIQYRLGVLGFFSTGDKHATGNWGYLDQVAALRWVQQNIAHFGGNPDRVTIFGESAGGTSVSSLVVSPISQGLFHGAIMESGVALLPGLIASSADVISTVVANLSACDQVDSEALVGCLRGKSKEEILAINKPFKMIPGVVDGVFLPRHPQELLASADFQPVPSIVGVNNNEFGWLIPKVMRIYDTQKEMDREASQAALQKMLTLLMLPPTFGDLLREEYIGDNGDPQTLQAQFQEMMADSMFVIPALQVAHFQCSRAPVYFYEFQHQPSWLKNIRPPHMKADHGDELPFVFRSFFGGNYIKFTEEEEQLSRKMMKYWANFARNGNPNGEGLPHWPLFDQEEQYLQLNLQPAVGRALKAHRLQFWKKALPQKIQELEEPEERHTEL
Experimental: as §1

CES3 = target: T3, CES3 (Homo sapiens, UniProt Q6UWW8); assay: Conversion of CAP7.1 to etoposide by CES3 (HPLC); assay type: in vitro ADME; details: 5 μM CAP7.1, sodium phosphate pH 7.4, 37° C.
T3 sequence (Q6UWW8 27-571): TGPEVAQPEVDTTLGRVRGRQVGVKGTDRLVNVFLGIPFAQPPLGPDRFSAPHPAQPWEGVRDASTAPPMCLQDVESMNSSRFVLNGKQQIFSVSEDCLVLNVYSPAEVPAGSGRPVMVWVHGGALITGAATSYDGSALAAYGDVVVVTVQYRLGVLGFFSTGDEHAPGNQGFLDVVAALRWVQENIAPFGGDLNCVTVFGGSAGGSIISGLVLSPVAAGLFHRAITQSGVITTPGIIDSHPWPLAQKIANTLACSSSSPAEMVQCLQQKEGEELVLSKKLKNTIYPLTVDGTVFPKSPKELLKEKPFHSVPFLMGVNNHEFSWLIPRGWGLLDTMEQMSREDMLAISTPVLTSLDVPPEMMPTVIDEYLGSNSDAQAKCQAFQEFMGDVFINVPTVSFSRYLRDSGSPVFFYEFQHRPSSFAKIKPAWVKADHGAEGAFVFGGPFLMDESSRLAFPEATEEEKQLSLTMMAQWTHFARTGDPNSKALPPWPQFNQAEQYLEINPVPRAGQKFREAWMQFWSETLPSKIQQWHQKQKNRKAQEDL
Experimental: as §1

[1] = Stability in sodium phosphate buffer (negative control); assay type: physicochemical; details: sodium phosphate pH 7.4, 37° C.
Experimental: as §1

topoisomerase II α = assay: Topoisomerase II alpha mRNA expression in U937 cells (PCR); assay type: cell-based; details: 24 h
Experimental: (§2) One of the controls involved the treatment of the cells with 0.05% (1 μl) DMSO. Untreated cells are also shown as a control.
(§3) After an incubation time of 24 h, expression was analysed by determining mRNA levels by real-time PCR. In the respective lanes of FIG. 2, the bands for topoisomerase II α (322 bp), topoisomerase II β (304 bp) and the GAPDH control (358 bp) are shown. In the H2O control lane, showing the results of the H2O control sample, no bands were observed.

topoisomerase II β = assay: Topoisomerase II beta mRNA expression in U937 cells (PCR); assay type: cell-based; details: 10^4 mol/l, 24 h
Experimental: as §2, §3

[2] = target: T4, MDR-1 gene product (P-glycoprotein) (Homo sapiens, UniProt P08183); assay: Functional MDR-1 assay with JC-1 in Kelly cells (flow cytometry); assay type: cell-based; details: for intracellular JC-1 signal versus DMSO control (MDR-1-mediated substrate efflux): Kelly cells, 10^−4 mol/l, 15 min
T4 construct: endogenous in cells; host or cells: Kelly
T4 sequence (P08183 whole entry): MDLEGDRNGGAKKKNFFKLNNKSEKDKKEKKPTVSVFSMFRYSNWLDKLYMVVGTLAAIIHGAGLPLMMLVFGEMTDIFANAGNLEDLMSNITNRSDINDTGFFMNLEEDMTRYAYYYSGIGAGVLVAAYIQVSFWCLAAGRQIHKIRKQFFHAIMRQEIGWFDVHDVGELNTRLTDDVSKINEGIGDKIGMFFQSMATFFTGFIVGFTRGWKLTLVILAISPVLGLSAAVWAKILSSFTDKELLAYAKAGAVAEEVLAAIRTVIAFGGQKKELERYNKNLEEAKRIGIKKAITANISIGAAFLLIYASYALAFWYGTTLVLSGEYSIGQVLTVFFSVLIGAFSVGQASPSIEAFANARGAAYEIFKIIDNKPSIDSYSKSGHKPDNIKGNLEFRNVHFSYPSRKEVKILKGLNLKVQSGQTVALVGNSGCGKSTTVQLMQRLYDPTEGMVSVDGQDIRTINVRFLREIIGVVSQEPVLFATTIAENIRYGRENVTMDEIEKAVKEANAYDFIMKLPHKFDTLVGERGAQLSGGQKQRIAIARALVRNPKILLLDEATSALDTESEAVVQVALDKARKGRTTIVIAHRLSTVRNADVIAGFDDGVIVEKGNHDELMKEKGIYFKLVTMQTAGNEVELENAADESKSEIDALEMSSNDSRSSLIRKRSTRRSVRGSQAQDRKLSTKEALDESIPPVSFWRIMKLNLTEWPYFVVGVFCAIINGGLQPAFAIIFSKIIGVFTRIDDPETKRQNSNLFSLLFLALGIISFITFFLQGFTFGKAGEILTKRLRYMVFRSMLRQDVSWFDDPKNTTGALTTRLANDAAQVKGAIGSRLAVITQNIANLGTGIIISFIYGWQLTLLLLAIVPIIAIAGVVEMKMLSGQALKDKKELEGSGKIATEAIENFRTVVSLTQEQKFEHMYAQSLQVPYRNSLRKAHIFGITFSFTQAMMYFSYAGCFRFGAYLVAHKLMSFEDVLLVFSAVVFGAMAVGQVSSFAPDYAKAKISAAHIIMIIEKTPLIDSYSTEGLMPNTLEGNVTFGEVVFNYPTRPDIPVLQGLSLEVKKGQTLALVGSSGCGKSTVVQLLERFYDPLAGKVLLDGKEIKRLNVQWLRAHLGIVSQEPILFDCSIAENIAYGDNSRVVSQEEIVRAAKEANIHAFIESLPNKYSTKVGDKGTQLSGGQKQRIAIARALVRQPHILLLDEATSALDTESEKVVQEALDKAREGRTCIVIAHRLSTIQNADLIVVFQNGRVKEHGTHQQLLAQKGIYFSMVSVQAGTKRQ
Experimental: By means of an assay using JC-1, MDR-1 activity was assessed in Kelly cells, which express MDR-1. JC-1 is a cationic staining dye which is taken up by living cells. JC-1 is recognized by the MDR-1 gene product (P-glycoprotein) and pumped to the outside of the cell (substrate efflux). Thus, MDR-1 activity is indicated by a reduction in intracellular JC-1 signal.
Kelly cells grown in RPMI medium were washed and resuspended at a concentration of 10^6 cells/ml in solutions containing JC-1 in a final concentration of 50 nmol/l. […] The control contained 1 μl (0.05%) DMSO. Cells were analysed for JC-1 staining in a FACScanto II flow cytometer.

U937 cells = assay: Cell cycle analysis in multidrug-resistant U937 cells (propidium iodide); assay type: cell-based; details: 18 h, 24 h and 48 h, CAP7.1, etoposide 10^−4 mol/l
Experimental: The cells were incubated for 48 h. After 18 h, 24 h and 48 h of incubation, respectively, cell cycle analysis was performed as follows:
Cells were washed once with CellWash, fixed with fridge-cold 70% Ethanol for 30 min at 4° C. and washed three times. RNA was digested with RNAse A (100 μg/ml in PBS) for 10 min at room temperature. Cells were washed once with CellWash and stained with propidium iodide (50 μg/ml in PBS) for 5 min at room temperature in the dark. Cells were analyzed immediately by flow cytometry using a FACScanto II apparatus.

HT-29 cells = assay: Cytotoxicity on HT-29 cells (XTT); assay type: cell-based; details: cell viability (XTT)
Experimental: HT-29 cells, which are not multidrug-resistant, were grown in DMEM, 10% foetal calf serum, 2 mM glutamine and […] Pen/Strep medium and then washed.
Cells were harvested, counted, and inoculated at the appropriate concentration of 10^4 cells/well (100 μl volume) into 96-well microtiter plates. After 24 h, the drugs were applied to triplicate culture wells, and cultures were incubated for given times at 37° C. XTT was prepared at 1 mg/ml in pre-warmed (37° C.) medium (RPMI 1640) without serum. PMS was prepared at 5 mmol/l (1.53 mg/ml) in PBS. Fresh XTT and PMS were mixed together at appropriate concentrations. For a 25 μmol/l XTT-PMS solution, 25 μl of the 5 mmol/l PMS solution were added per 5 ml of XTT (1 mg/ml). 50 μl of this mixture were added to each well on given time points after cell inoculation. After incubation at 37° C., the plates were mixed on a mechanical plate shaker, and absorbance was measured with an ELISA Reader to determine cell viability.

[3] = Cardiovascular telemetry study; assay type: in vivo, cynomolgus monkeys; details: conscious monkeys, single intravenous 30-minute infusion
Description: The objective of this study was to evaluate the potential modifications of cardiovascular function and cardiac electrophysiology by CAP7.1. The intravenous route was selected, as it is the intended mode of administration in human therapeutic use.
A total of four cynomolgus monkeys (two males and two females) were implanted with telemetric devices and allocated to a single group. They received a single dose of the vehicle (Cremophor/ethanol/NaCl) or CAP7.1, by intravenous 30-minute infusion. Cardiovascular parameters were monitored up to 24 hours following single infusion. The cardiovascular parameters evaluated in this study included heart rate, diastolic, systolic and mean arterial pressure, and duration of the PQ, QRS and QT intervals.

NSX2 tumour xenografts = assay: NSX2 tumour xenograft model; assay type: in vivo; details: mice bearing NSX2 tumour xenografts (MDR-mediated etoposide-resistant)
Description: The lack of cross-resistance to CAP7.1 of MDR-mediated etoposide-resistant cell lines in vitro was confirmed in vivo in mice bearing NSX2 tumour xenografts.

[4] = Combination therapy with carboplatin in children with advanced neuroblastoma; assay type: in vivo, human; details: human; plasma, one of the children treated
Experimental: (§4) CAP7.1 was administered with carboplatin to three children with heavily pre-treated advanced neuroblastoma.
(§5) Cycles were repeated every 21 days and a total of 4 cycles were administered in each patient. Toxicity was mainly haematological, grade 1-2 at 200 mg/m^2 and increased to grade 3-4 in the rest of the cycles, but cycle delay due to toxicity was not necessary.

advanced neuroblastoma = assay: as above; assay type: in vivo, human
Experimental: as §4, §5

Half life in mice = details: mouse, in vivo; mice with high levels of carboxylesterases
Half life in primates = assay type: in vivo
Half life in humans = details: human, in vivo
[5] = Time course of apoptosis induction; assay type: cell-based
P-glycoprotein = P-glycoprotein (Homo sapiens, UniProt P08183); assay: P-glycoprotein substrate behaviour; assay type: cell-based
Chain of P-glycoprotein (P08183 whole entry): as above

[6] = Side effects in preclinical and clinical studies; assay type: in vivo
[7] = mouse, in vivo
tumour cells = details: cited from earlier work
Animal toxicity profile = details: animals
[8] = system: tumours that were metastatic and/or that reduced the function of at least one organ; assay: Phase I/IIa safety/efficacy study in patients with metastatic and/or organ-function-reducing tumours
Experimental: Nine heavily pre-treated patients were recruited to a combined Phase I/IIa safety/efficacy study. The patients had tumours that were metastatic and/or that reduced the function of at least one organ.
In all patients, the tumours were clinically assessed and the history of their disease was recorded. Tumour markers were determined.
A cycle of treatment consisted of CAP7.1 administration by infusion on 5 consecutive days, followed by an intermittent period of 16 days in which no CAP7.1 was administered. […] The first cohort (patients 1-3, 8 cycles in total) received CAP7.1 at a daily dose of 45 mg/m^2, the second cohort (patients 4-6, 9 cycles in total) at a daily dose of 90 mg/m^2 and the third cohort (patients 7-9) at a daily dose of 150 mg/m^2.

With `COc1cc([C@@H]2c3cc4c(cc3C(OC3OC5COC(C)OC5C(O)C3O)C3COC(=O)[C@@H]32)OCO4)cc(OC)c1OC(=O)OCC(O)CO` (some centres unmarked) [CAP7.1] the “cleavage of CAP7.1 to etoposide by CES1” value (CES1) was “efficiently cleaves”, the “cleavage of CAP7.1 to etoposide by CES2” value (CES2) was “as efficiently as the positive control FCS” and the “cleavage of CAP7.1 to etoposide by CES3” value (CES3) was “substantially no cleavage”. For the same molecule, the “stability in buffer (negative control)” value [1] was “stable”, the “expression of topoisomerase II α (mRNA)” value (topoisomerase II α) was “significant decrease” and the “expression of topoisomerase II β (mRNA)” value (topoisomerase II β) was “significant decrease”. For the same molecule, the “intracellular JC-1 signal versus DMSO control (MDR-1-mediated substrate efflux)” value [2] was “increased”, the “fraction of cells in G2 phase with increasing incubation times” value (U937 cells) was “increase” and the “IC50 value of CAP7.1 lower than IC50 value of etoposide” value (HT-29 cells) was 10 fold. For the same molecule, the arrhythmias [3] was “No arrhythmias”, the “modifications in the cardiac electrophysiological parameters” value ([3]; up to 24 hours) was “no relevant modifications” and the “tumour growth compared to control” value (NSX2 tumour xenografts) was “clear inhibition of tumour growth”. The Cmax [4] was 3700 ng/mL, the half-life [4] was 12 to 30 min and the haematological toxicity grade (advanced neuroblastoma; CAP7.1 200 mg/m^2 day 1 with carboplatin 150 mg/m^2 days 2-5) was 1-2 grade. The haematological toxicity grade (advanced neuroblastoma; rest of the cycles (CAP7.1 400, 600 and 800 mg/m^2) with carboplatin) was 3-4 grade, the tumour response (advanced neuroblastoma; two of the three patients, with carboplatin) was “evidences of tumour shrinkage” and the half-life (Half life in mice) was under 5 min. For the same molecule, the “half life compared with mice” value (Half life in primates) was “longer”, the half-life (Half life in humans) was 15 to 30 min and the “time after which apoptosis is complete” value [5] was 120 h. The “substrate for P-glycoprotein / efflux from cells” value (P-glycoprotein) was “not a substrate for P-glycoprotein”, the “side effects compared with etoposide” value [6] was “fewer side effects than etoposide” and the LD10 [7] was 360 mg/m^2. For the same molecule, the “potency relative to etoposide, e.g. cytotoxicity on tumour cells” value (tumour cells) was “up to 1000 times”, the “main toxicity at sublethal dose” value (Animal toxicity profile) was “bone marrow suppression affecting predominantly neutrophils and red cells” and the weight loss (Animal toxicity profile) was “do not”. For the same molecule, the tooth damage (Animal toxicity profile; high dose group) was “reversible tooth damage”, the “tolerability of the therapy” value ([8]; all nine patients, 45, 90 or 150 mg/m^2 daily on 5 consecutive days per cycle) was “tolerated the therapy well without major adverse reactions” and the “clinical response after the second cycle of treatment” value ([8]; patients 1, 3, 4, 6, 8 and 9 of nine) was “stagnation of the disease”. For the same molecule, the “total dose per cycle tolerated without toxicity” value ([8]; patients 1 to 6) was 450 mg/m^2.

With `COc1cc([C@@H]2c3cc4c(cc3[C@@H](O[C@@H]3O[C@@H]5CO[C@@H](C)O[C@H]5[C@H](O)[C@H]3O)[C@H]3COC(=O)[C@H]23)OCO4)cc(OC)c1O` [etoposide, reference compound] the “expression of topoisomerase II α (mRNA)” value (topoisomerase II α) was “significant decrease”, the “expression of topoisomerase II β (mRNA)” value (topoisomerase II β) was “significant decrease” and the “intracellular JC-1 signal versus DMSO control (MDR-1-mediated substrate efflux)” value [2] was “identical”. The “effect on the MDR-1 gene product P-glycoprotein” value ([2]; general statement) was “ineffective on P-glycoprotein”, the “fraction of cells in G2 phase with increasing incubation times” value (U937 cells) was “reduction” and the “substrate for P-glycoprotein / efflux from cells” value (P-glycoprotein) was “pumped out of the cells”. The weight loss (Animal toxicity profile) was “significant weight loss”.
